Measurements published in patent US11617777B2, “Cytotoxic and anti-mitotic compounds, and methods of using the same” (ZYMEWORKS BC INC., priority 2013, dated 2023).
pEC50: −log10 of the molar value. Like-named read-outs stand apart in the source and are kept apart here.

Test system: Jurkat cells
Assay: Cytotoxicity of compounds, CellTiter-Glo
Format: cell-based, Human
Details: Homo sapiens, Jurkat, read-out: EC50
Text: Cell lines used: Human T-cell leukemia cell line Jurkat (ATCC: TIB-152); HCC1954 (ATCC: CRL. 2338); Human Pancreatic cells lines: AsPC-1 (ATCC: CRL-1682), BxPC-3 (ATCC: CRL.1687), HPAF-II (ATCC: CRL.1997), MiaPaCa2 (ATCC: CRL.1420), PANC-1 (ATCC: CRL.1469), Capan-1 (ATCC: HTB-79), Capan-2 (ATCC: HTB-80) and the Human gastric carcinoma cell line NCI-N87 (ATCC: CRL. 5822); AML-193 (ATCC: CRL.9589), CCRF-CEM (ATCC: CCL-119), DU145 (ATCC: HTB-81), PC-3 (ATCC: CRL.1435), A-431 (ATCC: CRL.1555), HT-29 (ATCC: HTB-38), A-172 (ATCC: CRL.1620), NCI-H358 (ATCC: CRL.5807), A549 (ATCC: CCL-185), Colo-205 (ATCC: CCL-222), MDA-MB-231 (ATCC: HTB-26), OVCAR-3 (ATCC: HTB-161), OV-90 (ATCC: CRL.11732), OE19 (Sigma: 96071721), RT 112/84 (Sigma: 85061106).
On the day prior to adding compounds, HCC1954 AsPC-1, BxPC-3, HPAF-II, MiaPaCa2, PANC-1, Capan-1, Capan-2 and NCI-N87 cells were added to opaque-walled 96-well tissue culture-treated microtiter plates using complete growth medium at a density of 2500 cells/100 microlitre (uL) of medium. These adherant cell lines cells were incubated for one night at 37° C./5% CO2 to allow the cells to attach to the microtiter plate surface. On the day that compounds were added, Jurkat cells are added to separate 96-well microtiter plates at 2500 cells/100 uL using the same growth medium as HCC1954. Compound were first serially diluted using dimethyl sulfoxide, and then the prepared dilutions are added to complete growth medium at five-times the final concentration—compounds were then titrated 1:3, eight steps. A control with no compound (growth medium alone) was included on each microtiter plate in sextuplicate. The prepared compounds titrations were added (twenty-five uL/well) in triplicate. The cells and compound titrations were incubated at 37° C./5% CO2 for three nights. After the incubation, cell viability is measured using CellTiter-Glo® reagent by adding thirty uL of prepared CellTiter-Glo® to each assay well. The assay is incubated for at least twenty minutes in the dark prior to measuring emitted luminescence using a microplate luminometer (500 ms integration time). The collected relative luminescence units (RLU) are converted to % cytotoxicity using the Growth medium alone control mentioned above (% Cytotoxicity=1−[Well RLU/average medium alone control RLU]).
GraphPad Prism was used for generation of EC50 values using three parameter non-linear regression curve fitting.

[1] = Table 3, Cytotoxicity of Compounds on Jurkat Cells
[2] = Table 6, Compound Cytotoxicity on Jurkat
[3] = Table 7, Cytotoxicity on Jurkat

Structure (SMILES)	pEC50 [1]	pEC50 [2]	pEC50 [3]
CN[C@H](C(=O)N[C@H](C(=O)N(C)[C@H](/C=C(\C)C(=O)NS(=O)(=O)c1cccs1)C(C)C)C(C)(C)C)C(C)(C)c1ccccc1 [Compound 50, (S,E)-2,5-dimethyl-N-(thiophen-2-ylsulfonyl)-4-((S)—N,3,3-trimethyl-2-((S)-3-methyl-2-(methylamino)-3-phenylbutanamido)butanamido)hex-2-enamide]	9.77		
CN[C@H](C(=O)N[C@H](C(=O)N(C)[C@H](/C=C(\C)C(=O)NS(=O)(=O)c1ccc(N)c(C)c1C)C(C)C)C(C)(C)C)C(C)(C)c1ccccc1 [Compound 109, (S,E)-N-(4-amino-2,3-dimethylphenylsulfonyl)-2,5-dimethyl-4-((S)—N,3,3-trimethyl-2-((S)-3-methyl-2-(methylamino)-3-phenylbutanamido)butanamido) hex-2-enamide]		10.06	10.06
CN[C@H](C(=O)N[C@H](C(=O)N(C)[C@H](/C=C(\C)C(=O)NS(=O)(=O)c1ccc(OC(F)(F)F)cc1)C(C)C)C(C)(C)C)C(C)(C)c1ccccc1 [Compound 13, (S,E)-2,5-dimethyl-N-(4-(trifluoromethoxy)phenylsulfonyl)-4-((S)—N,3,3-trimethyl-2-((S)-3-methyl-2-(methylamino)-3-phenylbutanamido)butanamido)hex-2-enamide]	10.42	8.82	
CN[C@H](C(=O)N[C@H](C(=O)N(C)[C@H](/C=C(\C)C(=O)NS(=O)(=O)c1ccc(C2(NC(=O)C(F)(F)F)CC2)cc1)C(C)C)C(C)(C)C)C(C)(C)c1ccccc1 [Compound 62, (S,E)-2,5-dimethyl-N-(4-(1-(2,2,2-trifluoroacetamido)cyclopropyl)phenylsulfonyl)-4-((S)—N,3,3-trimethyl-2-((S)-3-methyl-2-(methylamino)-3-phenylbutanamido)butanamido)hex-2-enamide]		8.92	
CN[C@H](C(=O)N[C@H](C(=O)N(C)[C@H](/C=C(\C)C(=O)NS(=O)(=O)Cc1ccc(CNC(=O)C(F)(F)F)cc1)C(C)C)C(C)(C)C)C(C)(C)c1ccccc1 [Compound 76, (S,E)-2,5-dimethyl-N-(4-((2,2,2-trifluoroacetamido)methyl)benzylsulfonyl)-4-((S)—N,3,3-trimethyl-2-((S)-3-methyl-2-(methylamino)-3-phenylbutanamido)butanamido)hex-2-enamide]	9.48		
CN[C@H](C(=O)N[C@H](C(=O)N(C)[C@H](/C=C(\C)C(=O)NS(=O)(=O)c1cccnc1)C(C)C)C(C)(C)C)C(C)(C)c1ccccc1 [Compound 49, (S,E)-2,5-dimethyl-N-(pyridin-3-ylsulfonyl)-4-((S)—N,3,3-trimethyl-2-((S)-3-methyl-2-(methylamino)-3-phenylbutanamido)butanamido)hex-2-enamide]	8.60		
CN[C@H](C(=O)N[C@H](C(=O)N(C)[C@H](/C=C(\C)C(=O)NS(=O)(=O)Cc1ccc(Cl)c(Cl)c1)C(C)C)C(C)(C)C)C(C)(C)c1ccccc1 [Compound 104, (S,E)-N-(3,4-dichlorobenzylsulfonyl)-2,5-dimethyl-4-((S)—N,3,3-trimethyl-2-((S)-3-methyl-2-(methylamino)-3-phenylbutanamido)butanamido)hex-2-enamide]		9.57	
CN[C@H](C(=O)N[C@H](C(=O)N(C)[C@H](/C=C(\C)C(=O)NS(=O)(=O)Cc1ccccc1)C(C)C)C(C)(C)C)C(C)(C)c1ccc(OCCO)cc1 [Compound 94, (S,E)-N-(benzylsulfonyl)-4-((S)-2-((S)-3-(4-(2-hydroxyethoxy)phenyl)-3-methyl-2-(methylamino)butanamido)-N,3,3-trimethylbutanamido)-2,5-dimethylhex-2-enamide]		8.78	
CN[C@H](C(=O)N[C@H](C(=O)N(C)[C@H](/C=C(\C)C(=O)NS(=O)(=O)c1ccccc1)C(C)C)C(C)(C)C)C(C)(C)c1ccccc1 [Compound 25, (S,E)-2,5-dimethyl-N-(phenylsulfonyl)-4-((S)—N,3,3-trimethyl-2-((S)-3-methyl-2-(methylamino)-3-phenylbutanamido)butanamido)hex-2-enamide]	10.30		
CN[C@H](C(=O)N[C@H](C(=O)N(C)[C@H](/C=C(\C)C(=O)NS(=O)(=O)c1ccc(Br)cc1)C(C)C)C(C)(C)C)C(C)(C)c1ccccc1 [Compound 29, (S,E)-N-(4-bromophenylsulfonyl)-2,5-dimethyl-4-((S)—N,3,3-trimethyl-2-((S)-3-methyl-2-(methylamino)-3-phenylbutanamido)butanamido)hex-2-enamide]	9.92		
CN[C@H](C(=O)N[C@H](C(=O)N(C)[C@H](/C=C(\C)C(=O)NS(=O)(=O)CCc1ccc([N+](=O)[O-])cc1)C(C)C)C(C)(C)C)C(C)(C)c1ccccc1 [Compound 73, (S,E)-2,5-dimethyl-N-(4-nitrophenethylsulfonyl)-4-((S)—N,3,3-trimethyl-2-((S)-3-methyl-2-(methylamino)-3-phenylbutanamido)butanamido)hex-2-enamide]		8.57	
CN[C@@H](C(=O)N[C@H](C(=O)N(C)[C@H](/C=C(\C)C(=O)NS(=O)(=O)Cc1ccccc1)C(C)C)C(C)(C)C)C(C)(C)c1cccc(OC)c1 [Compound 92, (S,E)-N-(benzylsulfonyl)-4-((S)-2-((R)-3-(3-methoxyphenyl)-3-methyl-2-(methylamino)butanamido)-N,3,3-trimethylbutanamido)-2,5-dimethylhex-2-enamide]		9.31	
CCc1cc(N)ccc1S(=O)(=O)NC(=O)/C(C)=C/[C@H](C(C)C)N(C)C(=O)[C@@H](NC(=O)[C@@H](NC)C(C)(C)c1ccccc1)C(C)(C)C [Compound 107, (S,E)-N-(4-amino-2-ethylphenylsulfonyl)-2,5-dimethyl-4-((S)—N,3,3-trimethyl-2-((S)-3-methyl-2-(methylamino)-3-phenylbutanamido)butanamido)hex-2-enamide]		10.37	10.37
CN[C@H](C(=O)N[C@H](C(=O)N(C)[C@H](/C=C(\C)C(=O)NS(=O)(=O)c1ccc(Cl)cc1)C(C)C)C(C)(C)C)C(C)(C)c1ccccc1 [Compound 17, (S,E)-N-(4-chlorophenylsulfonyl)-2,5-dimethyl-4-((S)—N,3,3-trimethyl-2-((S)-3-methyl-2-(methylamino)-3-phenylbutanamido)butanamido)hex-2-enamide]	9.49		
CN[C@H](C(=O)N[C@H](C(=O)N(C)[C@H](/C=C(\C)C(=O)NS(=O)(=O)Cc1ccccc1)C(C)C)C(C)(C)C)C(C)(C)c1ccc(N=[N+]=[N-])cc1 [Compound 42, (S,E)-4-((S)-2-((S)-3-(4-azidophenyl)-3-methyl-2-(methylamino)butanamido)-N,3,3-trimethylbutanamido)-N-(benzylsulfonyl)-2,5-dimethylhex-2-enamide]	9.78		
CN[C@H](C(=O)N[C@H](C(=O)N(C)[C@H](/C=C(\C)C(=O)NS(=O)(=O)c1ccccc1[N+](=O)[O-])C(C)C)C(C)(C)C)C(C)(C)c1ccccc1 [Compound 19, (S,E)-2,5-dimethyl-N-(2-nitrophenylsulfonyl)-4-((S)—N,3,3-trimethyl-2-((S)-3-methyl-2-(methylamino)-3-phenylbutanamido)butanamido)hex-2-enamide]	9.82		
CN[C@H](C(=O)N[C@H](C(=O)N(C)[C@H](/C=C(\C)C(=O)NS(=O)(=O)c1ccc(N)c(OC(F)(F)F)c1)C(C)C)C(C)(C)C)C(C)(C)c1ccccc1 [Compound 108, (S,E)-N-(4-amino-3-(trifluoromethoxy)phenylsulfonyl)-2,5-dimethyl-4-((S)—N,3,3-trimethyl-2-((S)-3-methyl-2-(methylamino)-3-phenylbutanamido)butanamido)hex-2-enamide]		10.77	10.77
CN[C@H](C(=O)N[C@H](C(=O)N(C)[C@H](/C=C(\C)C(=O)NS(=O)(=O)Cc1ccccc1)C(C)C)C(C)(C)C)C(C)(C)c1cccc(OC)c1 [Compound 93, (S,E)-N-(benzylsulfonyl)-4-((S)-2-((S)-3-(3-methoxyphenyl)-3-methyl-2-(methylamino)butanamido)-N,3,3-trimethylbutanamido)-2,5-dimethylhex-2-enamide]		9.71	
